From paper PMC10451034, “Highly Efficient Photosensitizers with Molecular Vibrational Torsion for Cancer Photodynamic Therapy” (ACS Central Science, 2023)

Columns and labels:
[1] = tested on: murine mammary carcinoma cells (4T1); assay: MTT cytotoxicity assay, 4T1; type: cell-based; settings: Mus musculus, light or radiation study; 4T1, 660 nm irradiation 12 J/cm^2
Description: DMEM medium was replaced with saline to prevent false positive interference. Then the cells were exposed to different following treatments: 1) cells incubated with PBS; 2) cells incubated with PBS under 660 nm irradiation (20 mW/cm2, 10 min); 3) cells incubated with QTCy7-R; 4) cells incubated with QTCy7-R under 660 nm irradiation (20 mW/cm2, 10 min). After being different treated, the cells were stained with Calcein-AM and Propidium Iodide (PI) according to the manufacture instruction. Then the confocal fluorescence imaging was carried out and recorded with a 10 × objective lens.
Cytotoxicity was tested by the reduction of methyl thiazolyl tetrazolium to formazan by succinic acid dehydrogenase in the mitochondria of living cells (MTT assay). […] The MTT solution was carefully removed and 100 μL DMSO was added to dissolve formazan, and the absorbance of each well was measured by a multifunctional microplate reader at 570 nm and 630 nm. […]
Where “OD” represent the absorbance at 570 nm and 630 nm, “ps” and “control” represent experimental groups and control groups, respectively. […]
And the fluorescence signals were monitored at different post -injection time by a NightOWL II LB983 small animal in vivo imaging system (German). […]

[2] = In vivo biosafety (body weight, H&E staining of major organs); set-up: species or system BALB/c mice
Description: The efficacy and safety of each therapeutic group were also evaluated by performing a hematoxylin and eosin (H&E) staining assay of major organs and tumor tissue (Figures 10g and S23). […]
of major organs, the mice L) was intravenously injected with QTCy7-Ac (200 μM, 100 μL) 2 hours in advance were killed and the main organs and tumors were removed for […]
Tumor suppression experiments of 4T1-subcutaneous tumor model
To confirm the in vivo PDT efficacy of QTCy7-Ac, all the BALB/c mice were divided into 6 groups: 1) saline injection; 2) saline injection with 660 nm irradiation (100 mW/cm2, 15 min); 3) QTCy7-Ac (200 μM, 100 μL) intratumoral injection; 4) QTCy7-Ac (200 μM, 100 μL) intratumoral injection with 660 nm irradiation (100 mW/cm2, 15 min); 5) QTCy7-Ac (200 μM, 100 μL) intravenous injection; 6) QTCy7-Ac (200 μM, 100 μL) intravenous injection with 660 nm irradiation (100 mW/cm2, 15 min); When the volume of subcutaneous tumors reached about 100 mm 3, mice were injected with PBS or QTCy7-Ac, respectively. […] In the following half month, the tumor volume of all the mice was measured every two days by a vernier caliper. The volume of tumors was calculated by the following formula: […]
The in vivo biocompatibility was evaluated by using measurement mice body weight and H&E slice histological analysis. […]
Data were expressed as mean ± standard deviation. […]

**Q.** What does the source list for `CCOC(=O)C1=C/C(=C\C=C2/Sc3ccccc3N2CC)C(=O)C(/C=C/c2sc3ccccc3[n+]2CC)=C1` [QTCy7-Ac]?
**A.** IC50 [1]: ~0.5 µM; H&E staining of major organs (heart, liver, spleen, lung, kidney) ([2]; after 16 days of treatment): not observed; body weight changes ([2]; during the treatment): no abnormal body weight changes
